# Test results as given in patent US7927790B2, “Suppression of HIV-1 replication via inhibition of human flap endonuclease-1-mediated HIV-1 central DNA flap processing” (priority 2005, dated 2011).
# Entries after “also recorded” stand apart in the source; their conditions may differ.
# What was measured:
# HIV IIIB virus = test: Antiviral challenge assay, HIV IIIB replication in H9 or CEM cells, p24; type: cell-based, HIV-1; details: for inhibition of HIV replication (p24) / suppression of HIV replication (p24): HIV IIIB, 7 days; for inhibition of HIV replication (p24): 10 μM AZT; for suppression of HIV replication (p24): 15 μM pentamidine
# Procedure: H9 cells or CEM cells were challenged with HIV IIIB virus in the absence (PC) or presence of 15 μM pentamidine (PTD) or 10 μM AZT. Cells were grown for 7 days and the concentration of p24 were determined and the inhibition percentage were calculated. FIG. 13B: H9 cells or CEM cells were challenged with HIV IIIB virus in the absence or presence of varying concentration of pentamidine (PTD) or AZT. Cells were grown for 7 days and the concentration of p24 were determined.
# The next experiment examined whether pentamidine could inhibit HIV replication in vivo. The H9 cells and CEM cells were challenged with HIV IIIB virus in the absence or presence of 15 μM pentamidine or 10 μM AZT, a HIV reverse transcriptase inhibitor.
# Antiviral challenge assays using infectious laboratory and other HIV-1 strains: Appropriate cells, screened for viability and growth kinetics, are challenged with HIV-1 strain IIIB, NL4-3, JRFL or primary isolates. This is a modification of a standard method described by Ho (Ho 1991) for virus neutralization. The resultant inoculum is titrated by ID50 in uninfected CEM, H9 or PBMC cultures. 0.01 MOI HIV is inoculated onto 10^6 candidate cells for six hours at 37° C., and then washed three times with PBS. For screening assays, each cell culture supernatant is examined on day seven post infection and examined for reverse transcriptase activity or p24 concentration. For confirmation assays, cultures are followed for day 7, 14, 21 and 28 observations. Cells are fed twice weekly by removing one-half of the media. Viral inhibition is defined >50% reduction in RT activity or p24 compared with control culture, which were mock-treated.
# FEN-1 = FEN-1 (Homo sapiens, UniProt P39748); test: FEN-1 nuclease assay with HIV CDF and regular 5′ flap model substrates; type: biochemical
# FEN-1, sequence (P39748 whole entry): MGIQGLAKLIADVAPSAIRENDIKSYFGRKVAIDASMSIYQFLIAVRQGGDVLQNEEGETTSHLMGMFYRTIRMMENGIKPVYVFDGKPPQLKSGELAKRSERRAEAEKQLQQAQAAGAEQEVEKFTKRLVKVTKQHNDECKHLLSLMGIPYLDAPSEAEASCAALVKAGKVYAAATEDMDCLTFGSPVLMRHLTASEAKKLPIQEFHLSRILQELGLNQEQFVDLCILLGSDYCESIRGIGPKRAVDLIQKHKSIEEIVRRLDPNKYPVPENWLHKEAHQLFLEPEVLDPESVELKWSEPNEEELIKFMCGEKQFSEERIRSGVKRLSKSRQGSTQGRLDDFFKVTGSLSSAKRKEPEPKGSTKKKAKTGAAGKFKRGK
# Procedure: 0.25 or 0.5 pmol of purified recombinant FEN-1 were mixed with 1 pmol of regular 5′ flap substrate with a 3′ flap of single nucleotide or HIV CDF substrate, respectively in the presence of 0, 0.1, 0.2, 0.4, 0.6, 0.8, and 1.0 mM pentamidine isethionate salt. The reaction was carried out at 37° C. for 30 minutes. Substrates and products were analyzed with DNA sequencing PAGE and visualized with radio-autograph (upper panel). The amount of cleavage products and non-cleaved substrates were quantified with ImagineQuant and were shown in the bottom panel.
# One pmol of HIV CDF substrate were mixed with 0, 0.01, 0.1, 1, and 3 pmol of purified recombinant FEN-1 in the absence or presence of 0.4 mM pentamidine isethionate salt. The reaction was carried out at 37° C. for 30 minutes. Substrates and products were analyzed with DNA sequencing PAGE and visualized with radio-autograph (upper panel). The amount of cleavage product and non-cleaved substrate were quantified with ImagineQuant and were shown in the bottom panel.
# FIG. 12 is a graph line and chart showing kinetic analysis of FEN-1 cleavage of HIV CDF substrates in the absence and presence of pentamidine. 1 pmol of FEN-1 was incubated with 0, 0.125, 0.25, 0.375, 0.5, 1, and 2 pmol of HIV CDF substrates. The reaction were carried out at 37° C. for 10 min. The amount of cleavage product and non-cleaved substrate were quantified with ImagineQuant. The Michaelis-Menten kinetic parameters Km and Kcat (Bottom panel) were calculated with double-reciprocal plots of 1/v versus 1/[s] (Upper panel).
# Nuclease assays. DNA model substrates were prepared as previously described (Zheng 2005). FEN-1 nuclease and/or D181A mutant was incubated with 1 pmol of indicated DNA substrates at 30° C. for 15 minutes. DNA substrates and products were separated in DNA sequencing PAGE and visualized with autoradiography.
# Finally, the third criteria is in vitro inhibition of HIV-CDF processing. The inhibition of FEN-1 cleavage of HIV-CDF and regular 5′ flap structures by molecules selected after criteria 2 are examined in this test. Only the molecules that inhibit FEN-1 cleavage of HIV-CDF but not the regular 5′ flap structures are qualified for in vivo studies. The inhibition efficacy of HIV replication in H9 and CEM T cell lines by small molecules is determined with the HIV reverse transcriptase inhibitor AZT used as an inhibition control.
# [1] = system: HIV-1 strain NL4-3 and III B; test: HIV-1 replication in CEM T-cells over-expressing FEN-1 or D181A, secreted p24; type: cell-based
# Procedure: In order to test the effects of FEN-1 function on HIV replication in its natural host cells, human T-cells, the CEM cells with the same construct shown in FIG. 4A were transfected under selection of G418. CEM cells (C), CEM cells expressing the c-myc-tagged hFEN-1 (F), or D181A mutant (A) were seeded at 0.5×10^4 cells per well in a 12-well plate. Duplicate plates were prepared for each cell line. The cells were challenged with two HIV-1 strains: NL4-3 and III B. Virus challenge proceeded at both 50 TCID50 and 5 TCID50. The cell culture supernatants were collected and the HIV-1 p24 was measured weekly for four weeks post-infection.
# HIV-1 replication in CEM cells. CEM cells, or CEM cells infected with the hFEN-1 or D181A retroviral vector, were seeded at 0.5×10^4 cells per well of a 12-well plate. Duplicate plates were prepared for each cell line. The cells were challenged with HIV-1 strain NL4-3 and III B. Viral challenge was conducted at both 50 TCID50. Cell culture supernatants were collected and the HIV-1 p24 was measured weekly for four weeks post-infection. Syncytium formation due to the HIV-1 infection was monitored, and cells were photographed under a microscope weekly (FIGS. 6-7).
# HIV-1 vector HXB2-Hyg = test: HIV-1 infection colony assay (hygromycin-resistant colonies) in HeLa CD4+ cells; type: cell-based; details: compared to control HeLa CD4+ cells
# Procedure: The cells are infected with a modified HIV-1 virus. Upon integration, the infected cells become hygromycin-resistant due to the expression of the drug-resistant gene from the proviral DNA. The integration efficiency is then determined by counting the colonies selected on Hygromycin B. The integration is confirmed by LTR-Tag assay.
# A modified HIV-1 virus vector derived from strain HXB2 (HXB2-Hyg) with a newly created Bpm I site near the end of the U5 region in its 5′ LTR is prepared. This virus genome also contains a hygromycin-resistant gene for selecting virus-infected cells. This VSV-G pseudotyped virus is used to infect LaD cells along with LaF and LaP cells with m.o.i. of 1.0. The infected cells are cultured in a medium containing 200 μg/ml of Hygromycin B for 2 weeks. The virus-infected cells with the stable integrated provirus are hygromycin-resistant and grow into colonies. The colonies are stained with 0.2% crystal violet in 10% phosphate-buffered formalin (pH 7.0) and counted.
# An LTR-Tag analysis method is used to detect HIV integration. […] For this reason, there are many fewer ^32P-labeled LTR-Tags prepared from the D181A overexpressing LaD cells in comparison to the radioactivity-labeled LTR-Tags prepared from the LaP cells. […]
# HIV-1 infection colony assay. […] Hygromycin-resistant colonies were stained with 0.2% crystal violet in 70% ethanol, and the number of colonies was counted.
# HIV-1 cDNA integration = test: HIV-1 integration assay, Southern blot hybridization of host genomic DNA; type: cell-based; details: expression in HeLa cells
# Procedure: To further validate that inhibition of FEN-1 nuclease activity reduced HIV-1 cDNA integration, genomic DNA was isolated and the integration of viral cDNA into the host genome was detected by Southern blot hybridization. […] Both of the experiments indicate that the integration of HIV may be impaired under a FEN-1 deficient background.
# HIV-1 integration assay. Genomic DNA was isolated from HIV-1 infected cells according to a previous protocol (Chen 1998). 20 μg of DNA was digested with EcoRV and BamHI and resolved on a native agarose gel. A 0.8 kb of HIV-1 specific DNA fragment, released by digestion of HIV cDNA with BamHI and BgIII, was used as a probe in Southern blot hybridization.
# [2] = in the presence of 400 μM of pentamidine
compound,measurement,setting,value
Cc1cn([C@H]2C[C@H](N=[N+]=[N-])[C@@H](CO)O2)c(=O)[nH]c1=O [AZT],inhibition of HIV replication (p24),HIV IIIB virus; CEM cells,98.6%
same,inhibition of HIV replication (p24),HIV IIIB virus; H9 cells,100%
N=C(N)c1ccc(OCCCCCOc2ccc(C(=N)N)cc2)cc1 [pentamidine],effect on FEN-1 cleavage of regular 5′ flap structures resembling RNA-DNA primers,FEN-1,little effect
same,effect on kcat and Km of FEN-1 cleavage of HIV CDF substrates,"FEN-1; Michaelis-Menten, double-reciprocal plots, 37° C., 10 min",decrease
same,cleavage of both HIV CDF and regular 5′ flap substrates,FEN-1; concentrations higher than 1 mM,completely inhibited
same,FEN-1's activity cleaving regular 5′ flap substrates retained,FEN-1; [2],greater than 80%
same,FEN-1 cleavage of HIV CDF structures suppressed,FEN-1; [2],90%
same,suppression of HIV replication (p24),HIV IIIB virus; CEM cells,69.3%
same,suppression of HIV replication (p24),HIV IIIB virus; H9 cells,98.8%
same,inhibitory effect on HIV replication compared with AZT,HIV IIIB virus; T-cell lines,equal to or more effective than AZT; also recorded: equivalent to AZT
same,inhibitory effect on HIV-1 replication relative to AZT,HIV IIIB virus; another T-cell line,about 70 % that of AZT
"D181A: dominant negative point mutant of human FEN-1, binds flap DNA but deficient in catalysis and nuclear localization",inhibition of wild type FEN-1 flap endonuclease activity in vitro,"FEN-1; HIV CDF substrate, mutant 8-10 folds higher than wild type protein concentration",almost completely inhibit
same,inhibition of FEN-1 activity with d-flap substrates,"FEN-1; d-flap substrates, model for host cell RNA primer removal",does not inhibit
same,"HIV-1 replication suppressed, secreted HIV p24 protein concentrations",[1]; stable T-cell lines over-expressing the mutant,more than 99.9%
same,"HIV inhibition, culture supernatant p24","[1]; transduced CEM cells, HIVIIIB and HIVNL4-3, weekly for four weeks",strong HIV inhibition
same,"decrease of HIV-1 integration, hygromycin-resistant CFUs",HIV-1 vector HXB2-Hyg,more than 95 % CFUs
same,HIV-1 cDNA integration into host genome,HIV-1 cDNA integration,significantly decreased
